Data taken from patent US20230399312A1, “SUBSTITUTED PYRIMIDINES AND METHODS OF USE” (THERAVANCE BIOPHARMA R&D IP, LLC, priority 2020, published 2023).

Key:
[1] = biological target: T1, recombinant human ALK5 (TGF-βR1) protein (Homo sapiens, UniProt P36897); assay: Biochemical ALK5 (TGF-βR1) assay to measure pKi (LANCE Ultra ULight kinase assay); details: apparent pKi, converted from pIC50 by Cheng-Prusoff
T1 construct: purchased Life Technologies PR9075A
T1 sequence (P36897 34-503): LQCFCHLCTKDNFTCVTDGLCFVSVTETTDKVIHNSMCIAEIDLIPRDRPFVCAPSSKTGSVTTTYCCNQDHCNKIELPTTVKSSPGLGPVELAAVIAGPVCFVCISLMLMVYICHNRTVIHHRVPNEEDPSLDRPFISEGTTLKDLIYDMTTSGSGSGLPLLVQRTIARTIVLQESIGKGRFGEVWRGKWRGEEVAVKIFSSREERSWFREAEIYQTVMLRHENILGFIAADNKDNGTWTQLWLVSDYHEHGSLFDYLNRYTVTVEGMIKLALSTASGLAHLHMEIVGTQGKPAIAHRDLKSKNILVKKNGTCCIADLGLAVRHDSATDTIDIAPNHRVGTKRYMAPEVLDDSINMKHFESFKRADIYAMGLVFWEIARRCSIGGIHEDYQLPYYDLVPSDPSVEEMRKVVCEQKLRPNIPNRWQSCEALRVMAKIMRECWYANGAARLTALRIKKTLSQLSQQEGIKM
Summary of the method: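 Dose-response series of each compound were preincubated with the kinase for 60 minutes at room temperature. Phosphorylation proceeded for 60 minutes at 37 °C after ATP addition, was quenched with EDTA, and was detected with a europium anti-phospho-Thr1342 antibody by TR-FRET; pKi was calculated from pIC50.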

[2] = test system: TGF-β-stimulated SMAD3 phosphorylation in BEAS-2B cells; assay: Cellular ALK5 potency assay, inhibition of TGF-β stimulated pSMAD3 formation in BEAS-2B cells; type: cell-based; details: Homo sapiens, pSMAD3, TGF-β 10 ng/mL, read-out: BEAS2B pIC50 (converted)
Summary of the method: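 BEAS-2B cells, HBSS/25 mM HEPES/1% BSA buffer; cpd 1 h, 37 °C; TGF-β 10 ng/mL final, 30 min; lysis, AlphaLISA pSMAD3 read next day. pIC50 vs stimulated no-compound baseline.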

Row | Ki [1] | Compound | IC50 [2]
1 | 0.398 to 3.16 nM | Cc1cccc(-c2nc(Nc3ccnc(Nc4csc(C(=O)O)c4)n3)c3cccn3n2)n1 [Compound 1023, 4-[[4-[[2-(6-methyl-2-pyridyl)pyrrolo[2,1-f][1,2,4]triazin-4-yl]amino]pyrimidin-2-yl]amino]thiophene-2-carboxylic acid] | 200 to 1260 nM
2 | 0.398 to 3.16 nM | Cc1cccc(-c2nccc(Nc3ccnc(Nc4cncc(C(=O)O[C@@H]5CCNC5)c4)n3)n2)n1 [Compound 549, (R)-pyrrolidin-3-yl 5-((4-((2-(6-methylpyridin-2-yl)pyrimidin-4-yl)amino)pyrimidin-2-yl)amino)nicotinate] | 25.1 to 158 nM
3 | 0.0398 to 0.316 nM | Cc1cccc(-c2nccc(Nc3ccnc(Nc4cccc(N5CCN(C)CC5)c4)n3)n2)n1 [Compound 233, N2-[3-(4-methylpiperazin-1-yl)phenyl]-N4-[2-(6-methyl-2-pyridyl)pyrimidin-4-yl]pyrimidine-2,4-diamine] | 25.1 to 158 nM
4 | 0.0398 to 0.316 nM | Cc1cccc(-c2nccc(Nc3ccnc(Nc4ccc(CN5CCC(C(=O)O[C@@H]6CCNC6)CC5)cc4)n3)n2)n1 [Compound 313, [(3R)-pyrrolidin-3-yl] 1-[[4-[[4-[[2-(6-methyl-2-pyridyl)pyrimidin-4-yl]amino]pyrimidin-2-yl]amino]phenyl]methyl] piperidine-4-carboxylate] | 25.1 to 158 nM
5 | 0.398 to 3.16 nM | Cc1cccc(-c2nccc(Nc3ccnc(Nc4nc(CN(C)C5CNC5)cs4)n3)n2)n1 [Compound 467, N2-[4-[[azetidin-3-yl(methyl)amino]methyl]thiazol-2-yl]-N4-[2-(6-methyl-2-pyridyl)pyrimidin-4-yl]pyrimidine-2,4-diamine] | 25.1 to 158 nM
6 | 0.0398 to 0.316 nM | Cc1cccc(-c2nccc(Nc3ccnc(Nc4ccc(C5=CCC(NC(C)C)CC5)cc4)n3)n2)n1 (stereo not shown) [Compound 358, N2-[4-[4-(isopropylamino)cyclohexen-1-yl]phenyl]-N4-[2-(6-methyl-2-pyridyl)pyrimidin-4-yl]pyrimidine-2,4-diamine] | 200 to 1260 nM
7 | 0.0398 to 0.316 nM | Cc1cccc(-c2nccc(Nc3ccnc(Nc4ccc(S(=O)(=O)N5CCN(C(C)(C)C)CC5)cc4)n3)n2)n1 [Compound 264, N2-[4-(4-tert-butylpiperazin-1-yl)sulfonylphenyl]-N4-[2-(6-methyl-2-pyridyl)pyrimidin-4-yl]pyrimidine-2,4-diamine] | 25.1 to 158 nM
8 | 0.398 to 3.16 nM | Cc1cccc(-c2nc(CC(=O)NCC(C)C)cc(Nc3ccnc(Nc4ccc(N5CCNCC5)cc4)n3)n2)n1 [Compound 1009, N-isobutyl-2-[2-(6-methyl-2-pyridyl)-6-[[2-(4-piperazin-1-ylanilino)pyrimidin-4-yl]amino]pyrimidin-4-yl] acetamide] | 200 to 1260 nM
9 | 0.0398 to 0.316 nM | Cc1cccc(-c2nccc(Nc3ccnc(Nc4ccc(CN5CC[C@H](O)C5)cc4)n3)n2)n1 [Compound 74, (3S)-1-[[4-[[4-[[2-(6-methyl-2-pyridyl)pyrimidin-4-yl]amino]pyrimidin-2-yl]amino]phenyl]methyl] pyrrolidin-3-ol] | 25.1 to 158 nM
10 | 0.0398 to 0.316 nM | Cc1cccc(-c2nccc(Nc3ccnc(Nc4ccc(CN5CC(OCCO)C5)cc4)n3)n2)n1 [Compound 392, 2-[1-[[4-[[4-[[2-(6-methyl-2-pyridyl)pyrimidin-4-yl]amino]pyrimidin-2-yl]amino]phenyl]methyl]azetidin-3-yl]oxyethanol] | 25.1 to 158 nM
11 | 0.0398 to 0.316 nM | Cc1cccc(-c2nccc(Nc3ccnc(Nc4nc(C(=O)NC5CNC5)cs4)n3)n2)n1 [Compound 44, N-(azetidin-3-yl)-2-[[4-[[2-(6-methyl-2-pyridyl)pyrimidin-4-yl]amino]pyrimidin-2-yl]amino]thiazole-4-carboxamide] | 25.1 to 158 nM
12 | 0.0398 to 0.316 nM | Cc1cccc(-c2nccc(Nc3ccnc(Nc4ccc(N(C)C5CNC5)cc4)n3)n2)n1 [Compound 496, N2-[4-[azetidin-3-yl(methyl)amino]phenyl]-N4-[2-(6-methyl-2-pyridyl)pyrimidin-4-yl]pyrimidine-2,4-diamine] | 25.1 to 158 nM
13 | 0.0398 to 0.316 nM | Cc1cccc(-c2nccc(Nc3ccnc(Nc4ccc(CN5CCCC(C(=O)OC6CNC6)C5)cc4)n3)n2)n1 (stereo not shown) [Compound 138, azetidin-3-yl 1-[[4-[[4-[[2-(6-methyl-2-pyridyl)pyrimidin-4-yl]amino]pyrimidin-2-yl]amino]phenyl]methyl] piperidine-3-carboxylate] | 25.1 to 158 nM
14 | 0.0398 to 0.316 nM | CN(C)C1CCN(c2ccc(Nc3nccc(Nc4ccnc(-c5cc(Cl)ccc5F)n4)n3)cc2)CC1 [Compound 415, N4-[2-(5-chloro-2-fluoro-phenyl)pyrimidin-4-yl]-N2-[4-[4-(dimethylamino)-1-piperidyl]phenyl]pyrimidine-2,4-diamine] | 25.1 to 158 nM
15 | 0.398 to 3.16 nM | Cc1cccc(-c2nccc(Nc3ccnc(Nc4ccc(-c5cnn(CCO)c5)cc4)n3)n2)n1 [Compound 36, 2-[4-[4-[[4-[[2-(6-methyl-2-pyridyl)pyrimidin-4-yl]amino]pyrimidin-2-yl]amino]phenyl]pyrazol-1-yl]ethanol] | 25.1 to 158 nM
16 | 0.0398 to 0.316 nM | Cc1cccc(-c2nccc(Nc3ccnc(Nc4cccc(N(C)C(=O)C5CCNCC5)c4)n3)n2)n1 [Compound 497, N-methyl-N-[3-[[4-[[2-(6-methyl-2-pyridyl)pyrimidin-4-yl]amino]pyrimidin-2-yl]amino]phenyl]piperidine-4-carboxamide] | 200 to 1260 nM
17 | 0.0398 to 0.316 nM | Cc1cccc(-c2nccc(Nc3ccnc(Nc4csc(C(=O)OC[C@@H]5CCC[C@@H](N)C5)c4)n3)n2)n1 [Compound 635, [(1R,3R)-3-aminocyclohexyl]methyl 4-[[4-[[2-(6-methyl-2-pyridyl)pyrimidin-4-yl]amino]pyrimidin-2-yl]amino]thiophene-2-carboxylate] | 25.1 to 158 nM
18 | 0.0398 to 0.316 nM | Fc1cc(F)c(-c2nccc(Nc3ccnc(Nc4ccc(N5CCNCC5)cc4)n3)n2)cc1Cl [Compound 556, N4-(2-(5-chloro-2,4-difluorophenyl)pyrimidin-4-yl)-N2-(4-(piperazin-1-yl)phenyl)pyrimidine-2,4-diamine] | 25.1 to 158 nM
19 | 0.0398 to 0.316 nM | Cc1cccc(-c2nccc(Nc3ccnc(Nc4csc(NC(=O)C5CNC5)c4)n3)n2)n1 [Compound 211, N-[4-[[4-[[2-(6-methyl-2-pyridyl)pyrimidin-4-yl]amino]pyrimidin-2-yl]amino]-2-thienyl]azetidine-3-carboxamide] | 25.1 to 158 nM
20 | 0.0398 to 0.316 nM | Cc1cccc(-c2nccc(Nc3ccnc(Nc4ccc(N5CCC(C(=O)O[C@@H]6CCNC6)CC5)cc4)n3)n2)n1 [Compound 337, [(3R)-pyrrolidin-3-yl] 1-[4-[[4-[[2-(6-methyl-2-pyridyl)pyrimidin-4-yl]amino]pyrimidin-2-yl]amino]phenyl]piperidine-4-carboxylate] | 25.1 to 158 nM
21 | 0.0398 to 0.316 nM | Cc1cccc(-c2nccc(Nc3ccnc(Nc4ccc(N(C)[C@H]5CCNC5)cc4)n3)n2)n1 [Compound 116, N4-[2-(6-methyl-2-pyridyl)pyrimidin-4-yl]-N2-[4-[methyl-[(3S)-pyrrolidin-3-yl]amino]phenyl]pyrimidine-2,4-diamine] | 25.1 to 158 nM
22 | 0.0398 to 0.316 nM | Cc1cccc(-c2nccc(Nc3ccnc(Nc4ccc(N5CCC(N)CC5)cc4)n3)n2)n1 [Compound 324, N2-[4-(4-amino-1-piperidyl)phenyl]-N4-[2-(6-methyl-2-pyridyl)pyrimidin-4-yl]pyrimidine-2,4-diamine] | 25.1 to 158 nM
23 | 0.0398 to 0.316 nM | Cc1cccc(-c2nccc(Nc3ccnc(Nc4cccc(NC(=O)N5CCN(C)CC5)c4)n3)n2)n1 [Compound 509, 4-methyl-N-[3-[[4-[[2-(6-methyl-2-pyridyl)pyrimidin-4-yl]amino]pyrimidin-2-yl]amino]phenyl]piperazine-1-carboxamide] | 25.1 to 158 nM
24 | 0.398 to 3.16 nM | Cc1cccc(-c2nccc(Nc3ccnc(Nc4ccc(N5CCC(CNCC(C)C)CC5)cc4)n3)n2)n1 [Compound 525, N2-[4-[4-[(isobutylamino)methyl]-1-piperidyl]phenyl]-N4-[2-(6-methyl-2-pyridyl)pyrimidin-4-yl]pyrimidine-2,4-diamine] | 25.1 to 158 nM
25 | 0.0398 to 0.316 nM | COc1cc(Nc2nccc(Nc3ccnc(-c4cccc(C)n4)n3)n2)ccc1CN1C[C@@H](C)N[C@@H](C)C1 [Compound 335, N2-[3-methoxy-4-[[rac-(3S,5R)-3,5-dimethylpiperazin-1-yl]methyl]phenyl]-N4-[2-(6-methyl-2-pyridyl)pyrimidin-4-yl]pyrimidine-2,4-diamine] | 25.1 to 158 nM
26 | 0.0398 to 0.316 nM | Cc1cccc(-c2nccc(Nc3ccnc(Nc4csc(C(=O)OC[C@H]5CC[C@H](N)CC5)c4)n3)n2)n1 [Compound 590, (4-aminocyclohexyl)methyl 4-[[4-[[2-(6-methyl-2-pyridyl)pyrimidin-4-yl]amino]pyrimidin-2-yl]amino]thiophene-2-carboxylate] | 25.1 to 158 nM
